Measurements taken from US4659696A, “Pharmaceutical composition and its nasal or vaginal use” (Takeda Chemical Industries, Ltd., priority 1982, dated 1987).

Legend:
Assay type in all cases: in vivo, rat
[1] = test system: plasma glucose level; assay: Plasma glucose level after nasal administration of insulin to rats; conditions: before administration=100
Description: Male SD strain rats (body weights 250 g, approx.) fasted for 16 hours are used in groups of at least 3 animals. Each animal is anesthetized with pentobarbital and administered nasal medication in accordance with the method described in International Journal of Pharmaceutics 7, 317 (1981). Then, 0.1 ml/kg of insulin solution is directly administered into the nasal cavity with a micropipette via the nostril.
The insulin solution used is a mixed solution of 10 U or 20 U of porcine insulin (about 0.2 mg or […]) and 0 mg to 10 mg [which correspond to 0 to 10%] of α-, β- or γ-cyclodextrin in 0.1 ml of an isotonic buffer solution (pH 7.4).
As control, insulin is intravenously administered and plasma glucose levels are determined in the manner as above.

[2] = test system: plasma glucose level; assay: Plasma glucose level after vaginal administration of insulin to rats; conditions: for Plasma glucose level (%): just before administration=100; for reduction in the area under the plasma glucose level-time curve within 6 hours after administration: mean±standard error
[3] = test system: plasma glucose level; assay: Plasma glucose level after rectal administration of insulin solution to rats; conditions: insulin 50 IU/kg, before administration=100
[4] = test system: plasma glucose level; assay: Plasma glucose level after rectal insulin suppository in rats; conditions: rectal Witepsol W-35 suppository, insulin 50 IU/kg, before administration=100
From the text: The results, which are shown in Table 11, indicate that the addition of α- or β-cyclodextrin results in an increased absorption of insulin.

insulin: porcine insulin
Change (%) in plasma glucose level ([1]; intranasal, insulin 10 U/Kg, no cyclodextrin, 1 hr.): 93.7%
Change (%) in plasma glucose level ([1]; intranasal, insulin 10 U/Kg, no cyclodextrin, 2 hr.): 99.3%
Change (%) in plasma glucose level ([1]; intranasal, insulin 10 U/Kg, no cyclodextrin, 4 hr.): 103.0%
Change (%) in plasma glucose level ([1]; intranasal, insulin 10 U/Kg, α-cyclodextrin 3%, 1 hr.): 73.5%
Change (%) in plasma glucose level ([1]; intranasal, insulin 10 U/Kg, α-cyclodextrin 3%, 2 hr.): 59.7%
Change (%) in plasma glucose level ([1]; intranasal, insulin 10 U/Kg, α-cyclodextrin 3%, 4 hr.): 62.9%
Change (%) in plasma glucose level ([1]; intranasal, insulin 10 U/Kg, α-cyclodextrin 5%, 1 hr.): 59.4%
Change (%) in plasma glucose level ([1]; intranasal, insulin 10 U/Kg, α-cyclodextrin 5%, 2 hr.): 46.8%
Change (%) in plasma glucose level ([1]; intranasal, insulin 10 U/Kg, α-cyclodextrin 5%, 4 hr.): 54.4%
Change (%) in plasma glucose level ([1]; intranasal, insulin 10 U/Kg, α-cyclodextrin 10%, 1 hr.): 33.8%
Change (%) in plasma glucose level ([1]; intranasal, insulin 10 U/Kg, α-cyclodextrin 10%, 2 hr.): 24.8%
Change (%) in plasma glucose level ([1]; intranasal, insulin 10 U/Kg, α-cyclodextrin 10%, 4 hr.): 40.3%
Change (%) in plasma glucose level ([1]; intranasal, insulin 10 U/Kg, β-cyclodextrin 10% (suspension), 1 hr.): 62.5%
Change (%) in plasma glucose level ([1]; intranasal, insulin 10 U/Kg, β-cyclodextrin 10% (suspension), 2 hr.): 48.6%
Change (%) in plasma glucose level ([1]; intranasal, insulin 10 U/Kg, β-cyclodextrin 10% (suspension), 4 hr.): 49.7%
Change (%) in plasma glucose level ([1]; intranasal, insulin 10 U/Kg, γ-cyclodextrin 10%, 1 hr.): 80.0%
Change (%) in plasma glucose level ([1]; intranasal, insulin 10 U/Kg, γ-cyclodextrin 10%, 2 hr.): 81.0%
Change (%) in plasma glucose level ([1]; intranasal, insulin 10 U/Kg, γ-cyclodextrin 10%, 4 hr.): 74.2%
Change (%) in plasma glucose level ([1]; intranasal, insulin 20 U/Kg, no cyclodextrin, 1 hr.): 92.4%
Change (%) in plasma glucose level ([1]; intranasal, insulin 20 U/Kg, no cyclodextrin, 2 hr.): 90.6%
Change (%) in plasma glucose level ([1]; intranasal, insulin 20 U/Kg, no cyclodextrin, 4 hr.): 99.9%
Change (%) in plasma glucose level ([1]; intranasal, insulin 20 U/Kg, α-cyclodextrin 5%, 1 hr.): 64.3%
Change (%) in plasma glucose level ([1]; intranasal, insulin 20 U/Kg, α-cyclodextrin 5%, 2 hr.): 38.4%
Change (%) in plasma glucose level ([1]; intranasal, insulin 20 U/Kg, α-cyclodextrin 5%, 4 hr.): 47.9%
Change (%) in plasma glucose level ([1]; intravenous, insulin 5 U/Kg, no cyclodextrin, 1 hr.): 29.6%
Change (%) in plasma glucose level ([1]; intravenous, insulin 5 U/Kg, no cyclodextrin, 2 hr.): 31.6%
Change (%) in plasma glucose level ([1]; intravenous, insulin 5 U/Kg, no cyclodextrin, 4 hr.): 41.7%
Plasma glucose level (%) ([2]; intravaginal (5% α-CD), insulin 20 Unit/kg, 0.5 hour): 66.5%
Plasma glucose level (%) ([2]; intravaginal (5% α-CD), insulin 20 Unit/kg, 1 hour): 52.7%
Plasma glucose level (%) ([2]; intravaginal (5% α-CD), insulin 20 Unit/kg, 2 hour): 40.0%
Plasma glucose level (%) ([2]; intravaginal (5% α-CD), insulin 20 Unit/kg, 3 hour): 33.7%
Plasma glucose level (%) ([2]; intravaginal (5% α-CD), insulin 20 Unit/kg, 4 hour): 31.4%
Plasma glucose level (%) ([2]; intravaginal (5% α-CD), insulin 20 Unit/kg, 6 hour): 41.5%
Plasma glucose level (%) ([2]; intravaginal (physiological saline), insulin 20 Unit/kg, no cyclodextrin, 0.5 hour): 80.7%
Plasma glucose level (%) ([2]; intravaginal (physiological saline), insulin 20 Unit/kg, no cyclodextrin, 1 hour): 75.8%
Plasma glucose level (%) ([2]; intravaginal (physiological saline), insulin 20 Unit/kg, no cyclodextrin, 2 hour): 77.2%
Plasma glucose level (%) ([2]; intravaginal (physiological saline), insulin 20 Unit/kg, no cyclodextrin, 3 hour): 74.2%
Plasma glucose level (%) ([2]; intravaginal (physiological saline), insulin 20 Unit/kg, no cyclodextrin, 4 hour): 66.9%
Plasma glucose level (%) ([2]; intravaginal (physiological saline), insulin 20 Unit/kg, no cyclodextrin, 6 hour): 67.8%
pharmacological effect versus control vaginal administration group ([2]; intravaginal, insulin 20 units/kg, 5% α-cyclodextrin): almost doubled
reduction in the area under the plasma glucose level-time curve within 6 hours after administration ([2]; intravaginal, insulin 20 units/kg, 5% α-cyclodextrin (invention group)): 339.9±11.2 %×hour
reduction in the area under the plasma glucose level-time curve within 6 hours after administration ([2]; intravaginal, insulin 20 units/kg, no cyclodextrin (control group)): 158.2±29.6 %×hour
Plasma glucose level (%) ([2]; subcutaneous, insulin 5 Unit/kg, no cyclodextrin, 0.5 hour): 67.0%
Plasma glucose level (%) ([2]; subcutaneous, insulin 5 Unit/kg, no cyclodextrin, 1 hour): 54.7%
Plasma glucose level (%) ([2]; subcutaneous, insulin 5 Unit/kg, no cyclodextrin, 2 hour): 42.2%
Plasma glucose level (%) ([2]; subcutaneous, insulin 5 Unit/kg, no cyclodextrin, 3 hour): 35.1%
Plasma glucose level (%) ([2]; subcutaneous, insulin 5 Unit/kg, no cyclodextrin, 4 hour): 37.5%
Plasma glucose level (%) ([2]; subcutaneous, insulin 5 Unit/kg, no cyclodextrin, 6 hour): 74.1%
Change (%) in plasma glucose level ([3]; 5% (w/v) α-cyclodextrin, 0.5 hr.): 92.9%
Change (%) in plasma glucose level ([3]; 5% (w/v) α-cyclodextrin, 1 hr.): 39.1%
Change (%) in plasma glucose level ([3]; 5% (w/v) α-cyclodextrin, 1.5 hr.): 39.6%
Change (%) in plasma glucose level ([3]; 5% (w/v) α-cyclodextrin, 2 hr.): 69.6%
Change (%) in plasma glucose level ([3]; 5% (w/v) β-cyclodextrin, 0.5 hr.): 94.3%
Change (%) in plasma glucose level ([3]; 5% (w/v) β-cyclodextrin, 1 hr.): 70.1%
Change (%) in plasma glucose level ([3]; 5% (w/v) β-cyclodextrin, 1.5 hr.): 76.3%
Change (%) in plasma glucose level ([3]; 5% (w/v) β-cyclodextrin, 2 hr.): 90.1%
Change (%) in plasma glucose level ([3]; 5% (w/v) γ-cyclodextrin, 0.5 hr.): 94.8%
Change (%) in plasma glucose level ([3]; 5% (w/v) γ-cyclodextrin, 1 hr.): 79.0%
Change (%) in plasma glucose level ([3]; 5% (w/v) γ-cyclodextrin, 1.5 hr.): 81.3%
Change (%) in plasma glucose level ([3]; 5% (w/v) γ-cyclodextrin, 2 hr.): 93.0%
Change (%) in plasma glucose level ([3]; no cyclodextrin, 0.5 hr.): 102.2%
Change (%) in plasma glucose level ([3]; no cyclodextrin, 1 hr.): 86.0%
Change (%) in plasma glucose level ([3]; no cyclodextrin, 1.5 hr.): 95.2%
Change (%) in plasma glucose level ([3]; no cyclodextrin, 2 hr.): 121.9%
Change (%) in plasma glucose level ([4]; 5% (w/w) α-cyclodextrin, 0.5 hr.): 93.1%
Change (%) in plasma glucose level ([4]; 5% (w/w) α-cyclodextrin, 1 hr.): 61.1%
Change (%) in plasma glucose level ([4]; 5% (w/w) α-cyclodextrin, 1.5 hr.): 63.5%
Change (%) in plasma glucose level ([4]; 5% (w/w) α-cyclodextrin, 2 hr.): 86.1%
Change (%) in plasma glucose level ([4]; 5% (w/w) α-cyclodextrin, 3 hr.): 93.4%
Change (%) in plasma glucose level ([4]; 5% (w/w) β-cyclodextrin, 0.5 hr.): 87.1%
Change (%) in plasma glucose level ([4]; 5% (w/w) β-cyclodextrin, 1 hr.): 81.5%
Change (%) in plasma glucose level ([4]; 5% (w/w) β-cyclodextrin, 1.5 hr.): 80.1%
Change (%) in plasma glucose level ([4]; 5% (w/w) β-cyclodextrin, 2 hr.): 92.5%
Change (%) in plasma glucose level ([4]; 5% (w/w) β-cyclodextrin, 3 hr.): 100.4%
Change (%) in plasma glucose level ([4]; no cyclodextrin, 0.5 hr.): 98.1%
Change (%) in plasma glucose level ([4]; no cyclodextrin, 1 hr.): 94.1%
Change (%) in plasma glucose level ([4]; no cyclodextrin, 1.5 hr.): 97.4%
Change (%) in plasma glucose level ([4]; no cyclodextrin, 2 hr.): 98.1%
Change (%) in plasma glucose level ([4]; no cyclodextrin, 3 hr.): 102.5%
